From ChEMBL document CHEMBL1133892 (Bioorg Med Chem Lett, 2001) come the findings set out here.

One may read the pEC50 as the EC50 on a negative log10 scale, so that one unit is a factor of ten. A lower pEC50 goes with a large EC50. A word on the ED50: it is the midpoint of the dose-response relation. Low values mean an effect at a small dose, high ones a need for a large dose. For orientation: pKi means −log10 of the Ki, conventionally taken in molar units. Low values mean a high Ki, high ones a low Ki.

Assay [1] has as its target T1, Prostacyclin receptor (Homo sapiens, UniProt P43119). The assay can be described thus: Effective concentration which increases intracellular c-AMP production in human Prostanoid IP receptor. It is filed as functional, cell-based.
Assay [2] addresses T2, Prostaglandin E2 receptor EP2 subtype (Mus musculus, UniProt Q62053). The assay can be described thus: Effective concentration which increases intracellular c-AMP production in mouse Prostanoid EP2 receptor. The class given is functional, cell-based.
The test system of assay [3] is Rattus norvegicus. The assay can be described thus: Suppression of uterine motility for the 5-min period before and after the commencenment of intravenous administration to anesthetized pregnant rats. The class given is functional.
In assay [4] the target is T3, Prostaglandin E2 receptor EP3 subtype (Mus musculus, UniProt P30557).
T3 sequence (P30557 whole entry): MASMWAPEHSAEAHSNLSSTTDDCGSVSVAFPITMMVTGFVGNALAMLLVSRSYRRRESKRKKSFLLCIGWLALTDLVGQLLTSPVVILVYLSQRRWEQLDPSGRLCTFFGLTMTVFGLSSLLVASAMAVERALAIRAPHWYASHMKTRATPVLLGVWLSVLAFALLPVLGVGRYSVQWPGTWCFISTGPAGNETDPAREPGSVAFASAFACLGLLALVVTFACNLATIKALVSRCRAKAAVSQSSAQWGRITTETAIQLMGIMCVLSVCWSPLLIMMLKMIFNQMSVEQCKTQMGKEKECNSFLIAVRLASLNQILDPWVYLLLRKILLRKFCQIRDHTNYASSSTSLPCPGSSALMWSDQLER
The assay can be described thus: Binding affinity towards mouse Prostanoid EP3 receptor in CHO cells. The class given is cell-based.

In assay [5] the target is T4, Prostaglandin E2 receptor EP1 subtype (Mus musculus, UniProt P35375).
T4 sequence (P35375 whole entry): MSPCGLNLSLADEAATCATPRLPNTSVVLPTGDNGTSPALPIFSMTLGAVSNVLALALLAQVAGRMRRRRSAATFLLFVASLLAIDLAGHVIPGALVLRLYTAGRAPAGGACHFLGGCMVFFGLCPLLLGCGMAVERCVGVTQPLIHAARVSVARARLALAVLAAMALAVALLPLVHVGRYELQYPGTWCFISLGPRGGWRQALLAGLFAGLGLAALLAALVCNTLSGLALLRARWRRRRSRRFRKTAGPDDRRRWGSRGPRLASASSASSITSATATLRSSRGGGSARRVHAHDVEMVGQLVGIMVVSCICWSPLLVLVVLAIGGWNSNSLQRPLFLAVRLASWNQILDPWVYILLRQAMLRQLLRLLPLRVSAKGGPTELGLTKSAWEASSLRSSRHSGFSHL
The assay can be described thus: Binding affinity towards mouse Prostanoid EP1 receptor in CHO cells. It is filed as cell-based.

The target in assay [6] is T1, Prostacyclin receptor. The experiment in a line: Binding affinity towards human Prostanoid IP receptor in CHO cells. The class given is cell-based.
In assay [7] the target is Prostaglandin E2 receptor EP4 subtype (Mus musculus, UniProt P32240). The experiment in a line: Binding affinity towards mouse Prostanoid EP4 receptor in CHO cells. The class given is cell-based.
Assay [8] deals with T2, Prostaglandin E2 receptor EP2 subtype. The assay can be described thus: Binding affinity towards mouse Prostanoid EP2 receptor expressed in CHO cells. The class given is cell-based.
The subject of assay [9] is Rattus norvegicus. The assay can be described thus: Evaluated for its maximal response of hypotensive effect at 1000 ug/kg, iv. It is filed as functional.
For assay [10], the target named is T2, Prostaglandin E2 receptor EP2 subtype. The assay can be described thus: Effective concentration which increases intracellular c-AMP production in mouse EP2- receptor. The class given is functional, cell-based.
Assay [11] deals with Rattus norvegicus. The assay can be described thus: Evaluated for its maximal response of hypotensive effect at 300 ug/kg, iv. The class given is functional.
For assay [12], the target named is Prostaglandin E2 receptor EP2 subtype (Homo sapiens, UniProt P43116). The experiment in a line: Compound was evaluated for its competitive binding affinity towards human Prostanoid EP2 receptor in CHO cells expressing prostanoid receptor. The class given is cell-based.

pEC50, pKi: −log10 of the molar value. Some results are limits rather than exact numbers.

T2 sequence (Q62053 whole entry): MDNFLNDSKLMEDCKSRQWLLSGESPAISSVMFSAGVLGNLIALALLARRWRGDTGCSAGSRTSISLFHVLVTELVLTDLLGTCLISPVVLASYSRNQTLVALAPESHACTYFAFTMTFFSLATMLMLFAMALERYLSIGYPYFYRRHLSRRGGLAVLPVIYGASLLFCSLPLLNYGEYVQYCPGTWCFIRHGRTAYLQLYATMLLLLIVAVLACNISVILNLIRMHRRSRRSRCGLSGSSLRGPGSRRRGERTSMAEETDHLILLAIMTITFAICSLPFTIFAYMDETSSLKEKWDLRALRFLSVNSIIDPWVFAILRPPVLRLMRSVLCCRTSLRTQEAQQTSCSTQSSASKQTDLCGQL
T1 sequence (P43119 whole entry): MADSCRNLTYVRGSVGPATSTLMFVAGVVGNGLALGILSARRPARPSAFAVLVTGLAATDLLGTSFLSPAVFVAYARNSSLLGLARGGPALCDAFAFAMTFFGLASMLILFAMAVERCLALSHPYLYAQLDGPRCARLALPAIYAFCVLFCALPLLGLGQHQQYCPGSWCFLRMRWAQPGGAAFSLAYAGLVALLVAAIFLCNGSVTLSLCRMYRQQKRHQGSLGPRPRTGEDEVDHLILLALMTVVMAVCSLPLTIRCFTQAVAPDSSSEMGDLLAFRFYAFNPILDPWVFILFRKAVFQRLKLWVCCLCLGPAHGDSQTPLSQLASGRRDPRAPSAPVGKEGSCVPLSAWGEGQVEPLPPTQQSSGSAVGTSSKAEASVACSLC
Sequence of Prostaglandin E2 receptor EP4 subtype (P32240 whole entry): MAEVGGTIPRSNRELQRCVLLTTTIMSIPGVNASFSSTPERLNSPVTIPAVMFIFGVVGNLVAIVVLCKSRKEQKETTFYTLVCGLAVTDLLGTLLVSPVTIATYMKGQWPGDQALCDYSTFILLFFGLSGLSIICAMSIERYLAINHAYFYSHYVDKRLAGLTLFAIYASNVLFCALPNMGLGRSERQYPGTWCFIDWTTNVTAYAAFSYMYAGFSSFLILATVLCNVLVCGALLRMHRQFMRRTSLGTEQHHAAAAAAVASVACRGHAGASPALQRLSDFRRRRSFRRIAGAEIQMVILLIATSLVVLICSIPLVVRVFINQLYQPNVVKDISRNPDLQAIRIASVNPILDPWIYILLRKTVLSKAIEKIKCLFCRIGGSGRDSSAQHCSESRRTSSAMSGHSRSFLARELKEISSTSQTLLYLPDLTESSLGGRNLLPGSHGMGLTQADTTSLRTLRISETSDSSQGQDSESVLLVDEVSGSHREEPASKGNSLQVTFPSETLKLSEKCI
Sequence of Prostaglandin E2 receptor EP2 subtype (Homo sapiens, UniProt P43116) (P43116 whole entry): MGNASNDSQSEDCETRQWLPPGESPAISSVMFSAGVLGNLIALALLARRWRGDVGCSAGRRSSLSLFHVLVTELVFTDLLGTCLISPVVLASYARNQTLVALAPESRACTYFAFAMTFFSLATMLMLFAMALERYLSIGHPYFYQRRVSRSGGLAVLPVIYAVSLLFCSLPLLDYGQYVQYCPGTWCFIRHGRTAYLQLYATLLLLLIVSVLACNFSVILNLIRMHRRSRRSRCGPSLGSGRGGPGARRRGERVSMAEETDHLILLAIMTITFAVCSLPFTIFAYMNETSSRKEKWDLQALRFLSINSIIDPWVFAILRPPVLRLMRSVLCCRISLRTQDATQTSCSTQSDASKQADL

In the case of `CCCC1([C@@H](O)C/C=C/C2[C@H](O)CC(=O)[C@@H]2CCCCCCC(=O)O)CCC1` (some centres undefined), the pEC50 in [1] was 7.60; in [2], 7.49. In assay [3], this molecule displayed an ED50 of 0.455 mg/kg. The pKi is less than 5.00 in assay [4]; less than 5.00 in assay [5]; 6.06 in [6]; less than 5.00 in [7]; 7.14 in assay [8]. This molecule also gave a Max response in assay [9] of 39.8 delta mmHg.

For `CCCC1([C@@H](O)C/C=C/C2[C@H](O)CC(=O)[C@@H]2CCCCCCC(=O)OC)CCC1` (some centres undefined), the pEC50 in assay [1] was 7.43; in assay [10], 7.48. In addition, the pKi was less than 5.00 in assay [4]; less than 5.00 in assay [5]; less than 5.00 in assay [6]; less than 5.00 in [7]; 5.62 in assay [8].

`CCCCCC1([C@@H](O)C/C=C/[C@H]2[C@H](O)CC(=O)[C@@H]2C/C=C\CCCC(=O)O)CCC1` gave a pEC50 in [2] of 6.89. The pKi in assay [4] is 6.08; in assay [5], 5.80; in [6] it was less than 5.00; in [7], 5.68; in [8] it was 7.70.

For `CCCCC[C@@H](O)/C=C/[C@H]1[C@H](O)CC(=O)[C@@H]1C/C=C\CCCC(=O)O`, the pEC50 was 6.59 in assay [1] and 8.68 in [2]. The ED50 in assay [3] was more than 1.8 mg/kg. The pKi was 8.30 in assay [4], 7.74 in assay [5], less than 5.00 in assay [6] and 7.42 in assay [8].

On to `CCCC1([C@@H](O)C/C=C/C2[C@H](O)CC(=O)[C@@H]2C/C=C/CCCC(=O)O)CCC1` (some centres undefined), for which the values for the pEC50 in assay [1] and in [2] were less than 5.00 and 7.37, respectively. For the same molecule, it took a dose of 0.275 mg/kg to reach the 50% effect level in [3] (ED50). Also, the pKi was less than 5.00 in assay [5], less than 5.00 in assay [7] and 7.04 in assay [8]. In assay [9], this molecule gave a Max response of 22.8 delta mmHg.

In turn, `CCC1([C@@H](O)C/C=C/[C@@H]2[C@@H](C/C=C\CCCC(=O)O)[C@@H](Cl)C[C@H]2O)CCC1` showed a pEC50 in [2] of 7.41. The pKi in [4] is less than 5.00; in assay [5], less than 5.00; in assay [6], less than 5.00; in assay [7] it was less than 5.00; in [8], 7.89.

As for `CC(C)CC1([C@@H](O)C/C=C/[C@H]2[C@H](O)CC(=O)[C@@H]2C/C=C\CCCC(=O)O)CCC1`, the pEC50 in assay [2] was 7.35. For the same molecule, the pKi in assay [5] was less than 5.00; in [6], less than 5.00; in [7], less than 5.00; in [8] it was 7.40.

Molecule `CCCC1([C@@H](O)C/C=C/[C@H]2[C@H](O)CC(=O)[C@@H]2C/C=C\CCCC(=O)O)CCC1` gave a pEC50 in assay [2] of 6.66. For the same molecule, the pKi is 5.92 in assay [4]; less than 5.00 in [5]; less than 5.00 in assay [6]; less than 5.00 in assay [7]; 6.48 in assay [8].

Take `CCCCCC(O)/C=C/[C@H]1[C@H](O)CC(=O)[C@@H]1CCCCCCC(=O)O` (single isomer, unassigned) [ALPROSTADIL]: the figures for the pEC50 in assay [1] and in assay [2] were 8.74 and 8.59, respectively. For the same molecule, the pKi is 8.30 in assay [4]; 7.00 in assay [5]; 6.82 in assay [6]; 8.48 in assay [7]; 7.06 in assay [8].

In [2], `CCC1([C@@H](O)C/C=C/[C@H]2[C@H](O)CC(=O)[C@@H]2C/C=C\CCCC(=O)O)CCC1` showed a pEC50 of 7.96. The pKi in [5] is less than 5.00; in [6], less than 5.00; in [7], less than 5.00; in assay [8], 7.52.

For `CCCC1([C@@H](O)C/C=C/C2[C@H](O)CC(=O)[C@@H]2CC#CCCCC(=O)O)CCC1` (some centres undefined), the pKi in [4] was less than 5.00; in assay [5], less than 5.00; in assay [7], less than 5.00; in assay [8] it was 5.96.

In turn, `CCCCC1([C@@H](O)C/C=C/[C@H]2[C@H](O)CC(=O)[C@@H]2C/C=C\CCCC(=O)O)CCC1` gave a pEC50 in assay [2] of 7.15. For the same molecule, the pKi in assay [4] is 5.70; in assay [5] it was 6.11; in assay [6], less than 5.00; in [7], less than 5.00; in [8] it was 7.37.

Turning to `CCCC1([C@@H](O)C/C=C/C2[C@H](O)CC(=O)[C@@H]2CCc2ccc(C(=O)O)cc2)CCC1` (some centres undefined), the figures for the pEC50 in assay [1] and in assay [2] were less than 5.00 and 7.27, respectively. The pKi in assay [5] is less than 5.00; in [7], less than 5.00; in assay [8] it was 7.60.

With `CCCC1([C@@H](O)C/C=C/[C@H]2[C@H](O)CC(=O)[C@@H]2C/C=C\CCCC(=O)O)CCCCC1`, the pEC50 in assay [2] is less than 5.00. The pKi in assay [5] was less than 5.00; in assay [7], less than 5.00; in assay [8] it was 5.48.

For `CCC1([C@@H](O)C/C=C/[C@@H]2[C@@H](C/C=C\CCCC(=O)O)CC[C@H]2O)CCC1`, the pEC50 in assay [2] was 5.85. In addition, the pKi in [4] was less than 5.00; in assay [5], 5.29; in [6], less than 5.00; in [7], less than 5.00; in [8], 7.96.

For `CCC1([C@@H](O)C/C=C/[C@@H]2[C@@H](C/C=C\CCCC(=O)O)[C@H](Cl)C[C@H]2O)CCC1`, the Max response in [11] is given as 24.4 delta mmHg. This molecule had a pEC50 in assay [2] of 8.55. This molecule returned an ED50 in [3] of 0.0329 mg/kg. The pKi in assay [4] is less than 5.00; in assay [5], 5.47; in [6], less than 5.00; in assay [7] it was less than 5.00; in [8], 8.66; in assay [12], 9.13.

`CCCC1([C@@H](O)C/C=C/[C@H]2[C@H](O)CC(=O)[C@@H]2C/C=C\CCCC(=O)O)CCCC1`: the pEC50 in assay [2] was 6.24. In addition, the pKi was less than 5.00 in assay [5], less than 5.00 in assay [6], less than 5.00 in assay [7] and 6.43 in [8].
